“And” between values parts separate entries of the source, which are not always exact repeats. Identical values can stand only once. One block for each molecule: values may come before it. The source made the active and inactive calls. The calls are words filed in the database; no cut-off is given here.
Tests used:
[1] = target: Glutaminase kidney isoform, mitochondrial (Homo sapiens, UniProt O94925); test: GLS Enzyme activity assay
[2] = target: Glutaminase liver isoform, mitochondrial (Homo sapiens, UniProt Q9UI32); test: GLS2 Enzyme activity assay
[3] = target: T1, 5-hydroxytryptamine receptor 1D (Homo sapiens, UniProt P28221); test: GPCRScan assay: inhibition of 5-HT1D; design: radioligand conc. used [nm] 1.0 – 2.0, parental cells HEKT
[4] = target: 5-hydroxytryptamine receptor 7 (Homo sapiens, UniProt P34969); test: GPCRScan assay: inhibition of 5-HT7A; design: radioligand conc. used [nm] 5.0 – 6.0, parental cells Stable HEK
[5] = GPCRScan assay: inhibition of GABA/PBR; design: species or system Rattus norvegicus; radioligand conc. used [nm] 0.3 – 2.0, parental cells brain tissue
[6] = system: A549; test: A549 CTG Assay; format: cell-based; conditions: Homo sapiens
[7] = target: 5-hydroxytryptamine receptor 1A (Homo sapiens) (UniProt P08908); conditions: Compound concentration 10.0 uM
[8] = target: 5-hydroxytryptamine receptor 1B (Homo sapiens) (UniProt P28222); conditions: Compound concentration 10.0 uM
[9] = target: T1, 5-hydroxytryptamine receptor 1D; conditions: Compound concentration 10.0 uM
[10] = target: 5-hydroxytryptamine receptor 1E (Homo sapiens) (UniProt P28566); conditions: Compound concentration 10.0 uM
[11] = target: 5-hydroxytryptamine receptor 2A (Homo sapiens) (UniProt P28223); conditions: Compound concentration 10.0 uM
[12] = target: 5-hydroxytryptamine receptor 2B (Homo sapiens) (UniProt P41595); conditions: Compound concentration 10.0 uM
[13] = target: 5-hydroxytryptamine receptor 3A (Homo sapiens) (UniProt P46098); conditions: Compound concentration 10.0 uM
[14] = target: 5-hydroxytryptamine receptor 5A (Homo sapiens) (UniProt P47898); conditions: Compound concentration 10.0 uM
[15] = target: 5-hydroxytryptamine receptor 6 (Homo sapiens) (UniProt P50406); conditions: Compound concentration 10.0 uM
[16] = target: D(3) dopamine receptor (Homo sapiens) (UniProt P35462); conditions: Compound concentration 10.0 uM
[17] = target: D(4) dopamine receptor (Homo sapiens) (UniProt P21917); conditions: Compound concentration 10.0 uM
[18] = target: Sodium-dependent dopamine transporter (Homo sapiens) (UniProt Q01959); conditions: Compound concentration 10.0 uM
[19] = target: Mu-type opioid receptor (Homo sapiens) (UniProt P35372); conditions: Compound concentration 10.0 uM
[20] = target: Delta-type opioid receptor (Homo sapiens) (UniProt P41143); conditions: Compound concentration 10.0 uM
[21] = target: Kappa-type opioid receptor (Homo sapiens) (UniProt P41145); conditions: Compound concentration 10.0 uM
[22] = target: Histamine H1 receptor (Homo sapiens) (UniProt P35367); conditions: Compound concentration 10.0 uM
[23] = target: Histamine H2 receptor (Homo sapiens) (UniProt P25021); conditions: Compound concentration 10.0 uM
[24] = target: Histamine H4 receptor (Homo sapiens) (UniProt Q9H3N8); conditions: Compound concentration 10.0 uM
[25] = target: Alpha-2A adrenergic receptor (Homo sapiens) (UniProt P08913); conditions: Compound concentration 10.0 uM
[26] = target: Alpha-2B adrenergic receptor (Homo sapiens) (UniProt P18089); conditions: Compound concentration 10.0 uM
[27] = target: Alpha-2C adrenergic receptor (Homo sapiens) (UniProt P18825); conditions: Compound concentration 10.0 uM
[28] = target: Beta-1 adrenergic receptor (Homo sapiens) (UniProt P08588); conditions: Compound concentration 10.0 uM
[29] = target: Beta-2 adrenergic receptor (Homo sapiens) (UniProt P07550); conditions: Compound concentration 10.0 uM
[30] = target: Muscarinic acetylcholine receptor M1 (Homo sapiens) (UniProt P11229); conditions: Compound concentration 10.0 uM
[31] = target: Muscarinic acetylcholine receptor M3 (Homo sapiens) (UniProt P20309); conditions: Compound concentration 10.0 uM
[32] = target: Muscarinic acetylcholine receptor M4 (Homo sapiens) (UniProt P08173); conditions: Compound concentration 10.0 uM
[33] = target: Muscarinic acetylcholine receptor M5 (Homo sapiens) (UniProt P08912); conditions: Compound concentration 10.0 uM
[34] = target: Sigma intracellular receptor 2 (Homo sapiens) (UniProt Q5BJF2); conditions: Compound concentration 10.0 uM
[35] = target: Sigma non-opioid intracellular receptor 1 (Homo sapiens) (UniProt Q99720); conditions: Compound concentration 10.0 uM

T1 sequence (P28221 whole entry): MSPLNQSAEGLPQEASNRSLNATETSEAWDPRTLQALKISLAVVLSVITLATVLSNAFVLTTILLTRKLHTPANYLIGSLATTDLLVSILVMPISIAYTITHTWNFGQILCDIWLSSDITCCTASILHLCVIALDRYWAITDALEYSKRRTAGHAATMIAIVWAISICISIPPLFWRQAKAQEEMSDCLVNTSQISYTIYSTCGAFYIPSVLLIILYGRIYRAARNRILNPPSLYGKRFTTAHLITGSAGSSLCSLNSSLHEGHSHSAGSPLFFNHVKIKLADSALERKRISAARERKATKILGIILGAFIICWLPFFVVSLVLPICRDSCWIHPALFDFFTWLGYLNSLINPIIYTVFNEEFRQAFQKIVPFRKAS
Chain of Glutaminase liver isoform, mitochondrial (Q9UI32 whole entry, canonical isoform): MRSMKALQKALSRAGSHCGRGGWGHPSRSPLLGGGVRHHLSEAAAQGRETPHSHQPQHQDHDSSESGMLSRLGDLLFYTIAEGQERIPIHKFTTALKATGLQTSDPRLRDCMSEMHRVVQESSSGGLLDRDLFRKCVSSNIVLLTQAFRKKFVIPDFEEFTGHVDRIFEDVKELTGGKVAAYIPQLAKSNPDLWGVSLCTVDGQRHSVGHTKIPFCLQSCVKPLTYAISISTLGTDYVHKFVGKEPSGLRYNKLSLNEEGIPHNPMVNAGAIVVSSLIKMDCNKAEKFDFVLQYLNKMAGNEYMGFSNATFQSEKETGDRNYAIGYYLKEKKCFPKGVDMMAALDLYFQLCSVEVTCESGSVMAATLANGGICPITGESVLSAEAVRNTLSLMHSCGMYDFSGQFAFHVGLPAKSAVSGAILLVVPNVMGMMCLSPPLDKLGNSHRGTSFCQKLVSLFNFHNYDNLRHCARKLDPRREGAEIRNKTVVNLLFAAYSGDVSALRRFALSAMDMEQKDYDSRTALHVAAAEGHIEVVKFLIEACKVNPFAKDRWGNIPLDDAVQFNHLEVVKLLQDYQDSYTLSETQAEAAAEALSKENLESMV
Chain of 5-hydroxytryptamine receptor 7 (P34969 whole entry): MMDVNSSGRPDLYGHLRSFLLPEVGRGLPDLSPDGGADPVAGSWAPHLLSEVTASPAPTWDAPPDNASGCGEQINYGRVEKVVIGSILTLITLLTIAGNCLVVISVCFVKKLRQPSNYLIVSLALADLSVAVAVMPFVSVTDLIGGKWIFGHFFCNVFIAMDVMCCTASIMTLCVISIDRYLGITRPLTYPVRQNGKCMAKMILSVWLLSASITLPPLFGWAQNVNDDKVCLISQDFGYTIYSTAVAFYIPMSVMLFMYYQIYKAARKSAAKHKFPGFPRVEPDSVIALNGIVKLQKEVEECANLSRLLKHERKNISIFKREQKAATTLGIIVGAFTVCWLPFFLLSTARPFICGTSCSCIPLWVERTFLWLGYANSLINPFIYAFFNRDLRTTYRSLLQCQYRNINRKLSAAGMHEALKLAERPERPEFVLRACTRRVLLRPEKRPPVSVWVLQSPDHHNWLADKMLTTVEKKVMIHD
Chain of Glutaminase kidney isoform, mitochondrial (O94925 whole entry, canonical isoform): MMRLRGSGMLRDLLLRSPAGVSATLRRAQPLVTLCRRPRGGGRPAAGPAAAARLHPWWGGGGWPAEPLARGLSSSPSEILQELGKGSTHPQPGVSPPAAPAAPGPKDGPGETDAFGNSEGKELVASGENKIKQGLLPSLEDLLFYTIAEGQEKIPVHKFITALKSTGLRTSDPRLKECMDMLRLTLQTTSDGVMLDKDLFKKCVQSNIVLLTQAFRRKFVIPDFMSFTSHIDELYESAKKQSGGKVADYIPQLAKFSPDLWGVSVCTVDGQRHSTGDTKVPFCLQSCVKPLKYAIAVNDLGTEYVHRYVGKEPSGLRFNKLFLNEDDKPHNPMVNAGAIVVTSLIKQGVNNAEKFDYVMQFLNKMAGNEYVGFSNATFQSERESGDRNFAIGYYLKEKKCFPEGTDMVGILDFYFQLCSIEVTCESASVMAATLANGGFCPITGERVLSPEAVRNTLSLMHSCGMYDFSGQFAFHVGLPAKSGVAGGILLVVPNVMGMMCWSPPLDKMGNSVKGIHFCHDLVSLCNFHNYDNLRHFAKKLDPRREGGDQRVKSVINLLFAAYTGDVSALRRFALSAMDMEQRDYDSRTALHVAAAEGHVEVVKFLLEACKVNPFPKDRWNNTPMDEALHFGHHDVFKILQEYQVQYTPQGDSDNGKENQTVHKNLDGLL
Chain of Beta-1 adrenergic receptor (Homo sapiens) (P08588 whole entry, looked up): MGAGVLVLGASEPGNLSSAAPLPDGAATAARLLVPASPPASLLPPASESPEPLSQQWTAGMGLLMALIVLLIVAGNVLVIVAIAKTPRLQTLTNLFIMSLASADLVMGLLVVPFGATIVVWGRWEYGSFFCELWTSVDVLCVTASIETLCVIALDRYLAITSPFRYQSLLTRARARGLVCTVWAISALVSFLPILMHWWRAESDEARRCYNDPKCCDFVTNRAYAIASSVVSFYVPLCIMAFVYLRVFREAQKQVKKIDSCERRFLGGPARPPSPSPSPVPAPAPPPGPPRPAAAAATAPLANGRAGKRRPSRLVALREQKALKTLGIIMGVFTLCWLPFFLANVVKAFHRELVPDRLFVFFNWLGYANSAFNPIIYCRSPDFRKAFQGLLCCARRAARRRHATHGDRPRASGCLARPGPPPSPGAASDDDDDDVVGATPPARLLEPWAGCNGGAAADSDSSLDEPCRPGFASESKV
Chain of Alpha-2A adrenergic receptor (Homo sapiens) (P08913 whole entry): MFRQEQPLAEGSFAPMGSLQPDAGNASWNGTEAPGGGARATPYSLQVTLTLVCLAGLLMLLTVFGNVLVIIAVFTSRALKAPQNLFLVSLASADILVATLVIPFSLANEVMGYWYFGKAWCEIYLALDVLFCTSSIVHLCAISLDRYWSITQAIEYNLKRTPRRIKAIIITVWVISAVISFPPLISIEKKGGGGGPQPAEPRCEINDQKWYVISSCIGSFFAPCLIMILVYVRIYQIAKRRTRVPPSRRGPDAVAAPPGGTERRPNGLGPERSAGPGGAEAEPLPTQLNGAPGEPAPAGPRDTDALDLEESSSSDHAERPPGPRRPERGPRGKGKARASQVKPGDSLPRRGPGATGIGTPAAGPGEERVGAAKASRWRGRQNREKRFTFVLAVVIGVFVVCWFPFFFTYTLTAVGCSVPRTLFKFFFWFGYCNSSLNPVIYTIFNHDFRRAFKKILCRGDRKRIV
Chain of 5-hydroxytryptamine receptor 1E (Homo sapiens) (P28566 whole entry): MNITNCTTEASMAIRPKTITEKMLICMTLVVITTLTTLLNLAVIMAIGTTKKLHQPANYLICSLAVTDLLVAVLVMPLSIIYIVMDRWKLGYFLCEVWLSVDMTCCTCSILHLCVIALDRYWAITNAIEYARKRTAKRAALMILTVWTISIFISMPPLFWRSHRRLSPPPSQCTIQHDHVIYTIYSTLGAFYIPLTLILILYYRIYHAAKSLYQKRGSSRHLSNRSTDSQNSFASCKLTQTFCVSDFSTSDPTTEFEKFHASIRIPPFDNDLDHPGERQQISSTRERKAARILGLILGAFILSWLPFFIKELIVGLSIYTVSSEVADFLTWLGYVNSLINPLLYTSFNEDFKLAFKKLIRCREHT
Chain of 5-hydroxytryptamine receptor 6 (Homo sapiens) (P50406 whole entry): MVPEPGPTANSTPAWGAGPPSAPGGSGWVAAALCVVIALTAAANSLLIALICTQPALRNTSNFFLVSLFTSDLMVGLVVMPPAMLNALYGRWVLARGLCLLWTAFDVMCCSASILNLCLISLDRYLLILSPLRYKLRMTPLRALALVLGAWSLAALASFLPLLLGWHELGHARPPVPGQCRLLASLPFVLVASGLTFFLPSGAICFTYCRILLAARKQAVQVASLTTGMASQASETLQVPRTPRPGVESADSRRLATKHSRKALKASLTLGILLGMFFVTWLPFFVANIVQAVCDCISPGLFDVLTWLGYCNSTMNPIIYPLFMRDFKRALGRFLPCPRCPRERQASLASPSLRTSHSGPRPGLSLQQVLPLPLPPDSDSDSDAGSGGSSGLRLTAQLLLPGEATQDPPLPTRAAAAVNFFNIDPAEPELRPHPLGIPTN
Chain of 5-hydroxytryptamine receptor 1B (Homo sapiens) (P28222 whole entry): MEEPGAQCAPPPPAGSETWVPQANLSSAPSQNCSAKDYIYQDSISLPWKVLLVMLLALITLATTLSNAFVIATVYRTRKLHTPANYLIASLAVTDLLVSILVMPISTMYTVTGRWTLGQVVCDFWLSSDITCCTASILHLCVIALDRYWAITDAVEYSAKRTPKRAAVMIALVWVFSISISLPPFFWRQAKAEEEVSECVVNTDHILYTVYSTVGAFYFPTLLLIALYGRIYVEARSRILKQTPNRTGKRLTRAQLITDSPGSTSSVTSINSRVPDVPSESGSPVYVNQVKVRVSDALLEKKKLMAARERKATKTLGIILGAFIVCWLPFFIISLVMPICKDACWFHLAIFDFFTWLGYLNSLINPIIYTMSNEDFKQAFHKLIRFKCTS
Chain of Alpha-2C adrenergic receptor (Homo sapiens) (P18825 whole entry): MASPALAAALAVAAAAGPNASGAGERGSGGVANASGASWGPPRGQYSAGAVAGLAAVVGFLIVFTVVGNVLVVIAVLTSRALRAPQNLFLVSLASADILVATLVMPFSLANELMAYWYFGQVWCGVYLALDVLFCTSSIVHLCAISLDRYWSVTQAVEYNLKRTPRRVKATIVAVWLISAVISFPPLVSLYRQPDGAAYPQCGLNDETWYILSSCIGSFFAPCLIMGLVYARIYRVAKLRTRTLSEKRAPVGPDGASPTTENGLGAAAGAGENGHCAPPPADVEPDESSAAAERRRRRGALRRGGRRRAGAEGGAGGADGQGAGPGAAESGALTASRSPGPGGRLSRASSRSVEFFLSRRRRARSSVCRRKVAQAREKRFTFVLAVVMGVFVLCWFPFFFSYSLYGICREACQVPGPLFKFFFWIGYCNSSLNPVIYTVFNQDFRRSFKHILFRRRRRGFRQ
Chain of Sigma intracellular receptor 2 (Homo sapiens) (Q5BJF2 whole entry): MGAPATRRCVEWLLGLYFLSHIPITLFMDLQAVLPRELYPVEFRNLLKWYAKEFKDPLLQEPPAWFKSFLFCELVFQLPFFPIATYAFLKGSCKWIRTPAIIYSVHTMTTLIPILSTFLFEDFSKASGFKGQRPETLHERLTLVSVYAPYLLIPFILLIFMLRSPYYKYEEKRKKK

IC50 [1]: > 30 µM (not active) | IC50 [2]: > 30 µM (not active)
Compound: O=C(Cc1ccccc1)Nc1nnc(N2CC[C@@H]3[C@H]2CN3c2cccnn2)s1 [A-426]

Ki ([3]; read-out: Ki): > 10 µM and 6.45 µM | Ki ([3]; read-out: pKi (converted)): > 10 µM | Ki [4]: > 10 µM | pKi [4]: < 5 | Ki [5]: > 10 µM | pKi [5]: < 5 | IC50 [1]: 0.031 µM (active) | IC50 [2]: > 30 µM (not active) | IC50 [6]: 10.5 nM (active) | inhibition [7]: 1.9% | inhibition [8]: 11.2% | inhibition [9]: 55.1% | inhibition [10]: -1.42% | inhibition [11]: -2.63% | inhibition [12]: 1.83% | inhibition [13]: 1.72% | inhibition [14]: 4.08% | inhibition [15]: -4.23% | inhibition [16]: -3.72% | inhibition [17]: -7.36% | inhibition [18]: 33.5% | inhibition [19]: -3.29% | inhibition [20]: -2.96% | inhibition [21]: 2.85% | inhibition [22]: 21.3% | inhibition [23]: -5.22% | inhibition [24]: 18.3% | inhibition [25]: 12.2% | inhibition [26]: -6.1% | inhibition [27]: 13.9% | inhibition [28]: 1.03% | inhibition [29]: -8.05% | inhibition [30]: 14.6% | inhibition [31]: 9.66% | inhibition [32]: -9.24% | inhibition [33]: 15% | inhibition [34]: 6.42% | inhibition [35]: 9.03%
Compound: O=C(Cc1ccccc1)Nc1nnc(N2C[C@H]3C[C@@H]2CN3c2cccnn2)s1 [A-446]

From ChEMBL document CHEMBL4800721, “Data for DCP probe A-446” (2021)
